Measurements as given in the NIST ThermoML archive (doi:10.1016/j.fluid.2010.05.017).
± gives the expanded uncertainty stated by the source. Blank lines part the entries; values can stand above or below the molecule they belong to.

What was measured:
[1] = xn = mol fraction of the nth substance listed; details: 298.15 K, 101 kPa, Liquid, Vibrating tube method
[2] = refractive index (Na D-line) (dimensionless); details: 298.15 K; 101.33 kPa; Liquid; Standard Abbe refractometry
[3] = 298.15 K; 101.33 kPa; Liquid; Vibrating tube method

SMILES: Cc1ccccc1C [1,2-dimethylbenzene] + CCCCCC
mass density ([1]; x2 = 0): 875.37 ± 0.24 kg/m3
mass density ([1]; x2 = 0.045): 865.52 ± 2.7 kg/m3
mass density ([1]; x2 = 0.097): 853.5 ± 2.7 kg/m3
mass density ([1]; x2 = 0.189): 832.71 ± 2.7 kg/m3
mass density ([1]; x2 = 0.295): 809.05 ± 2.7 kg/m3
mass density ([1]; x2 = 0.397): 786.32 ± 2.7 kg/m3
mass density ([1]; x2 = 0.495): 764.54 ± 2.7 kg/m3
mass density ([1]; x2 = 0.597): 742.07 ± 2.6 kg/m3
mass density ([1]; x2 = 0.697): 720.32 ± 2.6 kg/m3
mass density ([1]; x2 = 0.797): 698.71 ± 2.6 kg/m3
mass density ([1]; x2 = 0.901): 676.45 ± 2.6 kg/m3
mass density ([1]; x2 = 0.95): 665.83 ± 2.6 kg/m3

SMILES: Cc1cccc(C)c1 [1,3-dimethylbenzene] + CCCCCC
mass density ([1]; x2 = 0): 859.79 ± 0.24 kg/m3
mass density ([1]; x2 = 0.05): 849.62 ± 2.5 kg/m3
mass density ([1]; x2 = 0.098): 839.51 ± 2.5 kg/m3
mass density ([1]; x2 = 0.194): 819.34 ± 2.5 kg/m3
mass density ([1]; x2 = 0.297): 797.9 ± 2.5 kg/m3
mass density ([1]; x2 = 0.398): 777.18 ± 2.5 kg/m3
mass density ([1]; x2 = 0.498): 756.55 ± 2.5 kg/m3
mass density ([1]; x2 = 0.6): 735.62 ± 2.5 kg/m3
mass density ([1]; x2 = 0.699): 715.46 ± 2.5 kg/m3
mass density ([1]; x2 = 0.793): 696.42 ± 2.4 kg/m3
mass density ([1]; x2 = 0.896): 676.03 ± 2.4 kg/m3
mass density ([1]; x2 = 0.948): 665.51 ± 2.4 kg/m3

SMILES: Cc1ccc(C)cc1 [1,4-dimethylbenzene] + CCCCCC
mass density ([1]; x2 = 0): 856.59 ± 0.24 kg/m3
mass density ([1]; x2 = 0.048): 847.14 ± 2.4 kg/m3
mass density ([1]; x2 = 0.098): 836.82 ± 2.5 kg/m3
mass density ([1]; x2 = 0.196): 816.92 ± 2.5 kg/m3
mass density ([1]; x2 = 0.292): 797.23 ± 2.5 kg/m3
mass density ([1]; x2 = 0.394): 776.41 ± 2.5 kg/m3
mass density ([1]; x2 = 0.492): 756.57 ± 2.4 kg/m3
mass density ([1]; x2 = 0.591): 736.73 ± 2.4 kg/m3
mass density ([1]; x2 = 0.692): 716.48 ± 2.4 kg/m3
mass density ([1]; x2 = 0.792): 696.69 ± 2.4 kg/m3
mass density ([1]; x2 = 0.892): 676.71 ± 2.4 kg/m3
mass density ([1]; x2 = 0.948): 665.7 ± 2.4 kg/m3

refractive index [2]: 1.50591 ± 0.00071
mass density [3]: 1219.61 ± 0.42 kg/m3
SMILES: CCOS(=O)(=O)[O-].CC[n+]1cccc(C)c1 [1-ethyl-3-methylpyridinium ethylsulfate]

SMILES: CCCCCC [hexane] + Cc1ccc(C)cc1
mass density ([1]; x1 = 1): 655.19 ± 0.25 kg/m3

SMILES: CCCCCC [hexane] + Cc1cccc(C)c1
mass density ([1]; x1 = 1): 655.19 ± 0.25 kg/m3

SMILES: CCCCCC [hexane] + Cc1ccccc1C
mass density ([1]; x1 = 1): 655.19 ± 0.25 kg/m3
